Measured values: patent US12622910B2, “Inhibitors of Bruton's tyrosine kinase and methods of their use” (Janssen Pharmaceutica NV, priority 2021, dated 2026)
Where two headings read alike, the source gives them in different places.

What was measured:
ADRB1 (Adrenergic beta) = ADRB1 (Adrenergic beta) (Homo sapiens, UniProt P08588); test: Receptor panel, Study 3 (agonist/antagonist); type: biochemical; settings: n = 2
Experimental: (§1) RESULTS AND DISCUSSION—Selectivity—The compound of Formula (III) was evaluated in three selectivity panels to assess the potential for off-target pharmacology (Table 8). […] The kinase off-target profile of The compound of Formula (III) was assessed in a full human wild-type panel using radiometric kinase activity assays (KinaseProfiler™ and IC50Profiler™; Eurofins Scientific) (Table 9; FIG. 23). The compound of Formula (III) inhibited 4/278 kinases >50% at 1 micromolar, identifying BTK and the three other kinases having analogous Cys residues with the potential for covalent inhibition (BMX, TEC, BLK). […]. The cellular kinase selectivity of The compound of Formula (III) was established in native Ramos B cell kinome assays (KiNativ™; ActivX) confirmed BTK as the primary target with inhibition of BLK and TEC inhibition detected (Table 10).

ADRB2 (Adrenergic beta) = ADRB2 (Adrenergic beta) (Homo sapiens, UniProt P07550); test: Receptor panel, Study 3 (agonist/antagonist); type: biochemical; settings: n = 2
Experimental: as §1

D2L (Dopamine 2L) = D2L (Dopamine 2L) (Homo sapiens, UniProt P14416); test: Receptor panel, Study 3 (agonist/antagonist); type: biochemical; settings: n = 2
Experimental: as §1

DOP (Opioid delta) = DOP (Opioid delta) (Homo sapiens, UniProt P41143); test: Receptor panel, Study 3 (agonist/antagonist); type: biochemical; settings: n = 2; comment 20%
Experimental: as §1

H1 (Histamine H1) = H1 (Histamine H1) (Homo sapiens, UniProt P35367); test: Receptor panel, Study 3 (agonist/antagonist); type: biochemical; settings: n = 2
Experimental: as §1

[1] = system: IL-10 secretion, ABC-DLBCL OCI-LY-10 cells; test: IL-10 secretion by OCI-LY-10 cells (MesoScale); type: cell-based; settings: Homo sapiens, OCI-Ly10; 6 independent experiments; read-out: IC50, IL-10 secretion (mean±SEM)
Experimental: In Vitro Activity in DLBCL Cell Lines—NFκB signaling regulates the secretion of multiple cytokines, including interleukin (IL)-6 and IL-10. Secretion of IL-6 and -10 by ABC-DLBCL OCI-LY-10 cells was measured using a MesoScale assay. […] To determine the anti-proliferative activity of the compound of formula (III), several ABC-DLBCL cell lines—OCI-LY-3, OCI-LY-10, TMD8, and HBL-1—were treated for 8 days. […] The OCI-LY-3 cell line, which harbors a CARD11 mutation downstream of BTK in the NF-κB signaling pathway, was completely insensitive to the compound of Formula (III) up to 2 μM. In 2 experiments, OCI-LY-3 cells were insensitive to the compound of Formula (III) at all concentrations up to 10 μM.

P-gp (MDR1) = test: in vitro; settings: dog, MDCK-MDR1
Experimental: In vitro Absorption, Distribution, Metabolism, and Excretion—The compound of Formula (III) was assessed at a concentration of 5 μM in cell permeability models.

H1 (Histamine H1), sequence (P35367 whole entry): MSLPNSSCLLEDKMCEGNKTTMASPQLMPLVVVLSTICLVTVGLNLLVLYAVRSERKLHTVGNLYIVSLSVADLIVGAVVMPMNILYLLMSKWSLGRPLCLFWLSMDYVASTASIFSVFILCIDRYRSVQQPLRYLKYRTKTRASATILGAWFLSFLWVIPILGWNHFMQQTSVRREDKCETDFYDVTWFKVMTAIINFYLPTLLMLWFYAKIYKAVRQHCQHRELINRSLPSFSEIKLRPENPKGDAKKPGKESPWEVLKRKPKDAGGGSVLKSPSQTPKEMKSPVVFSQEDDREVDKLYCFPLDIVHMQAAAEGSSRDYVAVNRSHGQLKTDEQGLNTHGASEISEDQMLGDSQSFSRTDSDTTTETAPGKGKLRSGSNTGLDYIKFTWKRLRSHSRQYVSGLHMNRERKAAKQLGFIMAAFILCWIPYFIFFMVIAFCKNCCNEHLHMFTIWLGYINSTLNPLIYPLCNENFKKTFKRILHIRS
ADRB1 (Adrenergic beta), sequence (P08588 whole entry, species assumed): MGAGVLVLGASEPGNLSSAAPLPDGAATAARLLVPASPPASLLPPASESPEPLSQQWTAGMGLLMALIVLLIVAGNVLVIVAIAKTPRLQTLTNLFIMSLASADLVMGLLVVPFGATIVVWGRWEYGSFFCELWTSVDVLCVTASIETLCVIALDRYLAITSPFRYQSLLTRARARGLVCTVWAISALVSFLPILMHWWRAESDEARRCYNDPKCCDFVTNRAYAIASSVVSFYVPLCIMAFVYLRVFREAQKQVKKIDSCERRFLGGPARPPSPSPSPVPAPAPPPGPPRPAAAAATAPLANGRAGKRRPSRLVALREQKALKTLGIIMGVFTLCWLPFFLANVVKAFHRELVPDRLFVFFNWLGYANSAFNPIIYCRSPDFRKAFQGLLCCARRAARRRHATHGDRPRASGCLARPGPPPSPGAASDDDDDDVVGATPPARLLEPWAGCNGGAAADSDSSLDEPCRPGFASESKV
ADRB2 (Adrenergic beta), sequence (P07550 whole entry, species assumed): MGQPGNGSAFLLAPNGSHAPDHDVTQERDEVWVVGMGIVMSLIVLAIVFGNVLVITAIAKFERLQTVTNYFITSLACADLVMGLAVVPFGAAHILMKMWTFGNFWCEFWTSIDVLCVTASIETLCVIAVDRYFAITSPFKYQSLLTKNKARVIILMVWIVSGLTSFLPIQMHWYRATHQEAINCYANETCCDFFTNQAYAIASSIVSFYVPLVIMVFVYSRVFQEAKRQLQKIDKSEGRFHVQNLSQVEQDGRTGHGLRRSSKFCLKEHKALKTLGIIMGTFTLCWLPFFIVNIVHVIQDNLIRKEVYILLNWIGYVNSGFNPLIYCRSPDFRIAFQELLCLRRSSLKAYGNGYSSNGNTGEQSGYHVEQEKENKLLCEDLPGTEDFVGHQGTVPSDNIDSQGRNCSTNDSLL
DOP (Opioid delta), sequence (P41143 whole entry): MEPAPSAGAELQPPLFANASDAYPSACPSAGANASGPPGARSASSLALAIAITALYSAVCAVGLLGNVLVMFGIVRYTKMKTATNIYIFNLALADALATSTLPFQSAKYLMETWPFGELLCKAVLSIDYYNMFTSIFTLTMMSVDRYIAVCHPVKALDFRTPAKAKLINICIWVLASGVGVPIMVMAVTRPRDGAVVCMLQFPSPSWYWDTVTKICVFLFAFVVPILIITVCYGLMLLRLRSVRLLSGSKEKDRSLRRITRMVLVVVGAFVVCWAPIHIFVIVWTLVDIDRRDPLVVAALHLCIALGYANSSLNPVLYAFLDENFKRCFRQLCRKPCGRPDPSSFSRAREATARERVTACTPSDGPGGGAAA
D2L (Dopamine 2L), sequence (P14416 whole entry): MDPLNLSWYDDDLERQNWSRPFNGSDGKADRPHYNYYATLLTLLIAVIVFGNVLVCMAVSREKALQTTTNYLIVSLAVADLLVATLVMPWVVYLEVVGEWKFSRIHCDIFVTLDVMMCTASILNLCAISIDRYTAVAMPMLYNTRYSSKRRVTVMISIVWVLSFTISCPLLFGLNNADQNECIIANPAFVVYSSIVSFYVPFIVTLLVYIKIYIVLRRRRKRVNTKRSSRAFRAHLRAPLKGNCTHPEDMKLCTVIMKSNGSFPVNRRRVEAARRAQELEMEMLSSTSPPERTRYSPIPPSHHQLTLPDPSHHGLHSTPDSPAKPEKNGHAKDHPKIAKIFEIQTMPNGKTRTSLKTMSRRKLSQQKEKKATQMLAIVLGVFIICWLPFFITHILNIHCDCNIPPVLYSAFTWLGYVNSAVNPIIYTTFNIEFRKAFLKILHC

Question: How did the IC50 (ADRB1 (Adrenergic beta)) turn out when `C=CC(=O)N[C@H]1CCC[C@H]1NC(=O)c1sc2nccc3c2c1NC(=O)N3c1cnc(CC(C)C)cc1C` (atropisomer, axis not shown) [compound of Formula (III), N-((1R,2S)-2-Acrylamidocyclopentyl)-5-(S)-(6-isobutyl-4-methylpyridin-3-yl)-4-oxo-4,5-dihydro-3H-1-thia-3,5,8-triazaacenaphthylene-2-carboxamide] was run?
Answer: > 12.5 µM

Question: And the IC50 (ADRB2 (Adrenergic beta))?
Answer: > 12.5 µM

Question: What about the IC50 (D2L (Dopamine 2L)) of the same compound?
Answer: > 12.5 µM

Question: And the IC50 (DOP (Opioid delta))?
Answer: > 10 µM

Question: And the IC50 (H1 (Histamine H1); read-out: Agonist IC50)?
Answer: > 10 µM

Question: And the IC50 (H1 (Histamine H1); read-out: Antagonist IC50)?
Answer: > 10 µM

Question: And the IC50 [1]?
Answer: 0.018 ± 0.007 µM

Question: And the Papp A→B at 5 μM (P-gp (MDR1))?
Answer: < 0.483 ×10⁻⁶ cm/s

Question: What about the Papp B→A at 5 μM (P-gp (MDR1)) of the same compound?
Answer: 55.4 ×10⁻⁶ cm/s

Question: What about the efflux ratio at 5 μM (P-gp (MDR1)) of the same compound?
Answer: > 115
